Experimental data: PubChem BioAssay AID248 (DTP/NCI, 2004)
Where “and” joins values, the source holds several entries; their conditions need not be identical. Identical values can stand only once. Toxic doses and inconclusive results are not listed. Rule as the data show it: active = T/C of 150% or more; inactive = T/C below 125%.

System: L1210 leukemia ip in BDF1 mice, survival T/C
Experiment: NCI In Vivo Anticancer Drug Screen. Data for tumor model L1210 Leukemia (intraperitoneal) in B6D2F1 (BDF1) mice
Settings: endpoint: mean survival time, higher = longer survival
Summary of the method: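 Tumor cells were implanted, animals were treated, and survival was followed. The result divides the treated measurement by the vehicle-control measurement.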

[1] = dose: 100.0 mg/kg/injection, schedule: Q01DX001 (ip), vehicle: saline
[2] = dose: 100.0 mg/kg/injection, schedule: Q01DX009 (ip), vehicle: saline
[3] = dose: 100.0 mg/kg/injection, schedule: Q04DX003 (ip), vehicle: saline
[4] = dose: 200.0 mg/kg/injection, schedule: Q01DX001 (ip), vehicle: saline
[5] = dose: 200.0 mg/kg/injection, schedule: Q01DX009 (ip), vehicle: saline
[6] = dose: 200.0 mg/kg/injection, schedule: Q04DX003 (ip), vehicle: saline
[7] = dose: 400.0 mg/kg/injection, schedule: Q01DX001 (ip), vehicle: saline
[8] = dose: 400.0 mg/kg/injection, schedule: Q01DX009 (ip), vehicle: saline
[9] = dose: 400.0 mg/kg/injection, schedule: Q04DX003 (ip), vehicle: saline
[10] = dose: 100.0 mg/kg/injection, schedule: Q04DX002 (ip), vehicle: saline
[11] = dose: 100.0 mg/kg/injection, schedule: Q01DX009 (ip), vehicle: saline with Tween-80
[12] = dose: 100.0 mg/kg/injection, schedule: Q04DX003 (ip), vehicle: saline with Tween-80
[13] = dose: 200.0 mg/kg/injection, schedule: Q01DX009 (ip), vehicle: saline with Tween-80
[14] = dose: 200.0 mg/kg/injection, schedule: Q04DX003 (ip), vehicle: saline with Tween-80
[15] = dose: 400.0 mg/kg/injection, schedule: Q01DX009 (ip), vehicle: saline with Tween-80
[16] = dose: 400.0 mg/kg/injection, schedule: Q04DX003 (ip), vehicle: saline with Tween-80
[17] = dose: 25.0 mg/kg/injection, schedule: Q01DX009 (ip), vehicle: saline with Tween-80
[18] = dose: 50.0 mg/kg/injection, schedule: Q01DX009 (ip), vehicle: saline
[19] = dose: 100.0 mg/kg/injection, schedule: Q04DX003 (ip), vehicle: Klucel (hydroxypropylcellulose) (HPC)
[20] = dose: 200.0 mg/kg/injection, schedule: Q04DX003 (ip), vehicle: Klucel (hydroxypropylcellulose) (HPC)

Measured: T/C

COc1ccc(S(=O)O)cc1NC(C)=O
inactive: [1] 105 % of control | [2] 94 % of control | [3] 92 % of control and 100 % of control | [4] 96 % of control | [5] 87 % of control | [6] 93 % of control and 95 % of control | [7] 98 % of control | [8] 86 % of control | [9] 91 % of control and 93 % of control

CC(=O)OC1C(CO)OC2C1Oc1nc(=N)c(F)cn12 (stereo unspecified)
inactive: [10] 92 % of control

COC(OC)c1[nH]c(=S)[nH]c(=O)c1Cc1cccc2ccccc12
inactive: dose: 100.0 mg/kg/injection, schedule: Q01DX001 (ip), vehicle: Klucel (hydroxypropylcellulose) (HPC) 105 % of control | [11] 96 % of control | [12] 100 % of control | dose: 200.0 mg/kg/injection, schedule: Q01DX001 (ip), vehicle: Klucel (hydroxypropylcellulose) (HPC) 105 % of control | [13] 89 % of control | [14] 100 % of control | dose: 400.0 mg/kg/injection, schedule: Q01DX001 (ip), vehicle: Klucel (hydroxypropylcellulose) (HPC) 96 % of control | [15] 93 % of control | [16] 102 % of control

CCN(CC)CCCNC1=C(Cl)C(=O)c2ccccc2C1=O
inactive: [17] 95 % of control

NC(=O)C1(c2ccccc2)CCN(Cc2ccccc2)CC1
inactive: [17] 100 % of control | dose: 50.0 mg/kg/injection, schedule: Q01DX009 (ip), vehicle: saline with Tween-80 98 % of control | dose: 50.0 mg/kg/injection, schedule: Q04DX003 (ip), vehicle: saline with Tween-80 95 % of control | [11] 94 % of control | [12] 92 % of control

COC(=N)c1ccc(O)c(C)c1
inactive: [3] 99 % of control | [6] 94 % of control | [9] 88 % of control

CCC(C)(c1ccc(O)cc1)c1ccc(O)cc1
inactive: [10] 103 % of control | dose: 200.0 mg/kg/injection, schedule: Q04DX002 (ip), vehicle: saline 97 % of control | dose: 400.0 mg/kg/injection, schedule: Q04DX002 (ip), vehicle: saline 103 % of control

CCCCCC[Si](Cl)(CCCCCC)CCCCCC
inactive: [1] 87 % of control | [4] 98 % of control

O=C(OCC1CC1)c1ccc(N=Nc2ccccc2)cc1
inactive: dose: 75.0 mg/kg/injection, schedule: Q04DX002 (ip), vehicle: Klucel (hydroxypropylcellulose) (HPC) 102 % of control | dose: 150.0 mg/kg/injection, schedule: Q04DX002 (ip), vehicle: Klucel (hydroxypropylcellulose) (HPC) 108 % of control | dose: 300.0 mg/kg/injection, schedule: Q04DX002 (ip), vehicle: Klucel (hydroxypropylcellulose) (HPC) 105 % of control

CCNC(C)(C)C(SSSC(c1ccc(Br)cc1)C(C)(C)NCC)c1ccc(Br)cc1 (stereo unspecified)
inactive: dose: 25.0 mg/kg/injection, schedule: Q01DX009 (ip), vehicle: water 96 % of control | dose: 50.0 mg/kg/injection, schedule: Q01DX009 (ip), vehicle: water 90 % of control | dose: 100.0 mg/kg/injection, schedule: Q01DX009 (ip), vehicle: water 88 % of control

CN(C)CCCN1c2ccccc2Sc2cc(C=[N+](C)C)ccc21
inactive: dose: 100.0 mg/kg/injection, schedule: Q04DX003 (sc), vehicle: olive oil, sesame oil, peanut oil 103 % of control | dose: 200.0 mg/kg/injection, schedule: Q04DX003 (sc), vehicle: olive oil, sesame oil, peanut oil 98 % of control | dose: 400.0 mg/kg/injection, schedule: Q04DX003 (sc), vehicle: olive oil, sesame oil, peanut oil 108 % of control

COC(=O)c1ccc(C(=O)OC)[n+]([O-])c1
inactive: [2] 102 % of control | [3] 103 % of control | [5] 106 % of control | [6] 108 % of control | dose: 266.0 mg/kg/injection, schedule: Q04DX003 (ip), vehicle: saline 93 % of control | [8] 106 % of control | [9] 101 % of control | dose: 600.0 mg/kg/injection, schedule: Q04DX003 (ip), vehicle: saline 90 % of control

COc1ccc(-n2c(=O)c(N=Nc3ccc(Cl)cc3)c(O)n(-c3ccc(C)cc3)c2=S)cc1
inactive: dose: 37.5 mg/kg/injection, schedule: Q01DX001 (ip), vehicle: Klucel (hydroxypropylcellulose) (HPC) 92 % of control | dose: 75.0 mg/kg/injection, schedule: Q01DX001 (ip), vehicle: Klucel (hydroxypropylcellulose) (HPC) 92 % of control | dose: 150.0 mg/kg/injection, schedule: Q01DX001 (ip), vehicle: Klucel (hydroxypropylcellulose) (HPC) 91 % of control

C/C=C\C=N\N(C)C
inactive: [18] 110 % of control | [2] 106 % of control | [3] 102 % of control | [6] 97 % of control

CC(c1ccccc1C(=O)O)c1ccc(Br)c2ccccc12 (stereo unspecified)
inactive: dose: 50.0 mg/kg/injection, schedule: Q04DX003 (ip), vehicle: Klucel (hydroxypropylcellulose) (HPC) 93 % of control | [19] 108 % of control | [20] 98 % of control

O=C(O)c1cccc(F)c1C(=O)c1ccc2ccccc2c1
inactive: dose: 75.0 mg/kg/injection, schedule: Q01DX001 (ip), vehicle: carboxymethylcellulose (CMC) 96 % of control | [19] 97 % of control | dose: 150.0 mg/kg/injection, schedule: Q01DX001 (ip), vehicle: carboxymethylcellulose (CMC) 95 % of control | [20] 105 % of control | dose: 300.0 mg/kg/injection, schedule: Q01DX001 (ip), vehicle: carboxymethylcellulose (CMC) 93 % of control

O=C(Nc1ccc(Cl)cc1[N+](=O)[O-])Nc1ccccc1C(F)(F)F
inactive: dose: 100.0 mg/kg/injection, schedule: Q01DX001 (ip), vehicle: saline with Tween-80 93 % of control | [11] 94 % of control and 90 % of control | dose: 100.0 mg/kg/injection, schedule: Q04DX002 (ip), vehicle: saline with Tween-80 95 % of control and 96 % of control | [12] 97 % of control | dose: 200.0 mg/kg/injection, schedule: Q01DX001 (ip), vehicle: saline with Tween-80 90 % of control | [13] 100 % of control and 92 % of control | dose: 200.0 mg/kg/injection, schedule: Q04DX002 (ip), vehicle: saline with Tween-80 93 % of control and 98 % of control | [14] 88 % of control | dose: 400.0 mg/kg/injection, schedule: Q01DX001 (ip), vehicle: saline with Tween-80 101 % of control | [15] 94 % of control and 87 % of control | dose: 400.0 mg/kg/injection, schedule: Q04DX002 (ip), vehicle: saline with Tween-80 91 % of control | [16] 88 % of control

CC(C)(C)N1CC1
inactive: dose: 25.0 mg/kg/injection, schedule: Q04DX002 (ip), vehicle: saline 103 % of control | [18] 101 % of control | dose: 50.0 mg/kg/injection, schedule: Q04DX002 (ip), vehicle: saline 93 % of control | [1] 106 % of control | [2] 111 % of control | [10] 93 % of control | [4] 106 % of control | [5] 103 % of control

COC1C(COC(C)=O)OC(n2cnc3c(=O)[nH]cnc32)C1OC(C)=O (stereo unspecified)
inactive: [1] 112 % of control | [4] 108 % of control | [7] 103 % of control

CC(Cl)CN(CC(C)Cl)C(=O)OCC(NC(=O)OCc1ccccc1)C(=O)OCc1ccccc1 (stereo unspecified)
inactive: dose: 100.0 mg/kg/injection, schedule: Q01DX009 (ip), vehicle: Klucel (hydroxypropylcellulose) (HPC) 88 % of control | [19] 87 % of control | [20] 96 % of control | dose: 400.0 mg/kg/injection, schedule: Q01DX009 (ip), vehicle: Klucel (hydroxypropylcellulose) (HPC) 91 % of control | dose: 400.0 mg/kg/injection, schedule: Q04DX003 (ip), vehicle: Klucel (hydroxypropylcellulose) (HPC) 91 % of control

O=S1(=O)CC23CCC2(COC3)C1 (stereo unspecified)
inactive: dose: 12.5 mg/kg/injection, schedule: Q04DX003 (ip), vehicle: saline 97 % of control | dose: 25.0 mg/kg/injection, schedule: Q04DX003 (ip), vehicle: saline 94 % of control | dose: 50.0 mg/kg/injection, schedule: Q04DX003 (ip), vehicle: saline 92 % of control
